PubChem BioAssay (NCI)
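Results reflect a 48-hour exposure of cells in 96-well plates to compound at five concentrations. Abbreviation: GI50, concentration required for 50% inhibition of growth. TGI denotes the concentration required for complete inhibition of growth.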

Columns and labels:
Assay in all cases: NCI anticancer screen, dose series, 48 h
SNB-19 CNS = system: SNB-19 CNS
HS 578T breast = system: HS 578T breast
HOP-92 NSCLC = system: HOP-92 NSCLC
KM12 colon = system: KM12 colon
DU-145 prostate = system: DU-145 prostate
SF-295 CNS = system: SF-295 CNS
HCC-2998 colon = system: HCC-2998 colon
NCI-H23 lung = system: NCI-H23 lung
HOP-62 NSCLC = system: HOP-62 NSCLC
MDA-MB-435 = system: MDA-MB-435
SR leukemia = system: SR leukemia
HT29 colon = system: HT29 colon
NCI-H226 lung = system: NCI-H226 lung
SK-MEL-28 melanoma = system: SK-MEL-28 melanoma
BT-549 breast = system: BT-549 breast
SK-OV-3 ovarian = system: SK-OV-3 ovarian
TK-10 renal = system: TK-10 renal
MDA-MB-231 breast = system: MDA-MB-231 breast
HCT-15 colon = system: HCT-15 colon
CCRF-CEM leukemia = system: CCRF-CEM leukemia
PC-3 prostate = system: PC-3 prostate
RXF 393 renal = system: RXF 393 renal
RPMI-8226 leukemia = system: RPMI-8226 leukemia
786-0 renal = system: 786-0 renal
SNB-75 CNS = system: SNB-75 CNS
HL-60(TB) leukemia = system: HL-60(TB) leukemia
NCI-H460 lung = system: NCI-H460 lung
MCF7 breast = system: MCF7 breast
MALME-3M melanoma = system: MALME-3M melanoma
K-562 leukemia = system: K-562 leukemia
A498 renal = system: A498 renal
A549 NSCLC = system: A549 NSCLC
HCT-116 colon = system: HCT-116 colon
OVCAR-8 ovarian = system: OVCAR-8 ovarian
COLO 205 colon = system: COLO 205 colon
OVCAR-5 ovarian = system: OVCAR-5 ovarian
ACHN renal = system: ACHN renal
LOX IMVI melanoma = system: LOX IMVI melanoma
T-47D breast = system: T-47D breast
SW-620 colon = system: SW-620 colon
SK-MEL-5 melanoma = system: SK-MEL-5 melanoma
M14 melanoma = system: M14 melanoma
CAKI-1 renal = system: CAKI-1 renal
MOLT-4 leukemia = system: MOLT-4 leukemia
SN12C renal = system: SN12C renal
NCI-H522 lung = system: NCI-H522 lung
SF-539 CNS = system: SF-539 CNS
NCI/ADR-RES ovarian = system: NCI/ADR-RES ovarian
UO-31 renal = system: UO-31 renal
OVCAR-3 ovarian = system: OVCAR-3 ovarian
U251 CNS = system: U251 CNS
UACC-62 melanoma = system: UACC-62 melanoma
UACC-257 melanoma = system: UACC-257 melanoma
SK-MEL-2 melanoma = system: SK-MEL-2 melanoma
SF-268 CNS = system: SF-268 CNS
IGROV1 ovarian = system: IGROV1 ovarian

`CCOc1nc(-c2ccccc2)cc2c(O)c(-c3nnco3)[nH]c(=O)c12` was tested, and the GI50 (SNB-19 CNS) was 6.13 µM, the TGI (SNB-19 CNS) was over 62.4 µM and the GI50 (HS 578T breast) was 5.39 µM. It also gave a TGI (HS 578T breast) of 30.1 µM, a GI50 (HOP-92 NSCLC) of 1.24 µM and a TGI (HOP-92 NSCLC) of 6.97 µM. For the same compound, the GI50 (KM12 colon) was 4.14 µM, the TGI (KM12 colon) was over 100 µM and the GI50 (DU-145 prostate) was 5.3 µM. For the same compound, the TGI (DU-145 prostate) was over 100 µM, the GI50 (SF-295 CNS) was 4.28 µM and the TGI (SF-295 CNS) was over 54.4 µM. The GI50 (HCC-2998 colon) was 5.57 µM, the TGI (HCC-2998 colon) was over 100 µM and the GI50 (NCI-H23 lung) was 4.01 µM. The TGI (NCI-H23 lung) was over 100 µM, the GI50 (HOP-62 NSCLC) was 4.12 µM and the TGI (HOP-62 NSCLC) was over 100 µM. The GI50 (MDA-MB-435) was 8.48 µM, the TGI (MDA-MB-435) was over 100 µM and the GI50 (SR leukemia) was 3.85 µM. The TGI (SR leukemia) was over 100 µM, the GI50 (HT29 colon) was over 100 µM and the TGI (HT29 colon) was over 100 µM. It also gave a GI50 (NCI-H226 lung) of 6.25 µM, a TGI (NCI-H226 lung) of over 100 µM and a GI50 (SK-MEL-28 melanoma) of 30.9 µM. It also gave a TGI (SK-MEL-28 melanoma) of over 100 µM, a GI50 (BT-549 breast) of 3.23 µM and a TGI (BT-549 breast) of over 100 µM. It also gave a GI50 (SK-OV-3 ovarian) of 10 µM, a TGI (SK-OV-3 ovarian) of 75.9 µM and a GI50 (TK-10 renal) of 4.59 µM. It also gave a TGI (TK-10 renal) of 35.2 µM, a GI50 (MDA-MB-231 breast) of 1.66 µM and a TGI (MDA-MB-231 breast) of over 29.8 µM. It also gave a GI50 (HCT-15 colon) of 3.66 µM, a TGI (HCT-15 colon) of over 100 µM and a GI50 (CCRF-CEM leukemia) of 3.04 µM. The TGI (CCRF-CEM leukemia) was over 100 µM, the GI50 (PC-3 prostate) was 4.3 µM and the TGI (PC-3 prostate) was over 100 µM. The GI50 (RXF 393 renal) was 3.71 µM, the TGI (RXF 393 renal) was 25.2 µM and the GI50 (RPMI-8226 leukemia) was 4.11 µM. The TGI (RPMI-8226 leukemia) was over 100 µM, the GI50 (786-0 renal) was 6.17 µM and the TGI (786-0 renal) was 31.9 µM. It also gave a GI50 (SNB-75 CNS) of 1.92 µM, a TGI (SNB-75 CNS) of 8.99 µM and a GI50 (HL-60(TB) leukemia) of 5.86 µM. For the same compound, the TGI (HL-60(TB) leukemia) was over 100 µM, the GI50 (NCI-H460 lung) was 4.01 µM and the TGI (NCI-H460 lung) was over 100 µM. For the same compound, the GI50 (MCF7 breast) was 0.507 µM, the TGI (MCF7 breast) was over 100 µM and the GI50 (MALME-3M melanoma) was 7.58 µM. For the same compound, the TGI (MALME-3M melanoma) was over 100 µM, the GI50 (K-562 leukemia) was 4.83 µM and the TGI (K-562 leukemia) was over 100 µM. The GI50 (A498 renal) was 2.56 µM, the TGI (A498 renal) was 58 µM and the GI50 (A549 NSCLC) was 4.55 µM. For the same compound, the TGI (A549 NSCLC) was over 100 µM, the GI50 (HCT-116 colon) was 6.07 µM and the TGI (HCT-116 colon) was over 100 µM. For the same compound, the GI50 (OVCAR-8 ovarian) was 4.24 µM, the TGI (OVCAR-8 ovarian) was over 100 µM and the GI50 (COLO 205 colon) was 5.74 µM. It also gave a TGI (COLO 205 colon) of over 100 µM, a GI50 (OVCAR-5 ovarian) of over 82.3 µM and a TGI (OVCAR-5 ovarian) of over 100 µM. It also gave a GI50 (ACHN renal) of 5.02 µM, a TGI (ACHN renal) of over 100 µM and a GI50 (LOX IMVI melanoma) of 4.4 µM. The TGI (LOX IMVI melanoma) was over 100 µM, the GI50 (T-47D breast) was 0.251 µM and the TGI (T-47D breast) was 9.93 µM. For the same compound, the GI50 (SW-620 colon) was 3.6 µM, the TGI (SW-620 colon) was over 100 µM and the GI50 (SK-MEL-5 melanoma) was 2.16 µM. For the same compound, the TGI (SK-MEL-5 melanoma) was 8.18 µM, the GI50 (M14 melanoma) was 7.12 µM and the TGI (M14 melanoma) was over 100 µM. It also gave a GI50 (CAKI-1 renal) of 4.15 µM, a TGI (CAKI-1 renal) of over 100 µM and a GI50 (MOLT-4 leukemia) of 4.9 µM. It also gave a TGI (MOLT-4 leukemia) of over 100 µM, a GI50 (SN12C renal) of 3.27 µM and a TGI (SN12C renal) of over 100 µM. For the same compound, the GI50 (NCI-H522 lung) was 3.09 µM, the TGI (NCI-H522 lung) was over 100 µM and the GI50 (SF-539 CNS) was 4.39 µM. It also gave a TGI (SF-539 CNS) of over 47.1 µM, a GI50 (NCI/ADR-RES ovarian) of 3.4 µM and a TGI (NCI/ADR-RES ovarian) of over 100 µM. It also gave a GI50 (UO-31 renal) of 2.11 µM, a TGI (UO-31 renal) of over 100 µM and a GI50 (OVCAR-3 ovarian) of 4.42 µM. It also gave a TGI (OVCAR-3 ovarian) of over 100 µM, a GI50 (U251 CNS) of 4.41 µM and a TGI (U251 CNS) of over 43.7 µM. The GI50 (UACC-62 melanoma) was 6.47 µM, the TGI (UACC-62 melanoma) was over 100 µM and the GI50 (UACC-257 melanoma) was 3.2 µM. It also gave a TGI (UACC-257 melanoma) of over 100 µM, a GI50 (SK-MEL-2 melanoma) of 9.4 µM and a TGI (SK-MEL-2 melanoma) of over 46.9 µM. It also gave a GI50 (SF-268 CNS) of 5.62 µM, a TGI (SF-268 CNS) of over 100 µM and a GI50 (IGROV1 ovarian) of 3.63 µM. For the same compound, the TGI (IGROV1 ovarian) was over 89.8 µM.
